Experimental data taken from ChEMBL document CHEMBL1155604, “New norditerpenoid alkaloids from Aconitum falconeri” (J Nat Prod, 2000).
Activity calls are given as the source filed them. The rule behind the calls is not given here.

Assays:
Electrophorus electricus = test: (§1) Inhibition of electric eel acetylcholinesterase type VI-S after 30 mins by modified Ellman's assay
[1] = as §1; parameters: species or system Electrophorus electricus

## CCO[C@]12C[C@H](OC)[C@@]3(O)C[C@H]([C@@H]1[C@H]3OC(=O)c1ccc(OC)c(OC)c1)[C@@]13C4[C@@H]2[C@H](OC)[C@@H]1[C@](COC)(CN4CC)[C@H](O)C[C@@H]3OC
Electrophorus electricus
  Activity: inactive

## CCN1C[C@]2(COC)[C@H](O)C[C@H](OC)[C@]34C1[C@H]([C@H](OC)[C@H]23)[C@@]1(OC(C)=O)C[C@H](OC)[C@@]2(O)C[C@@H]4[C@@H]1[C@H]2OC(=O)c1ccc(OC)c(OC)c1 [PSEUDACONITINE]
[1]
  IC50: 278 µM

## COC[C@]12CN(C=O)C3[C@@H]4[C@H](OC)[C@H]1[C@@]3([C@@H](OC)C[C@H]2O)[C@@H]1C[C@]2(O)[C@@H](OC)C[C@@]4(OC(C)=O)[C@H]1[C@H]2OC(=O)c1ccc(OC)c(OC)c1 [FALEOCONITINE]
[1]
  IC50: 293 µM
